According to patent publication EP0028689A1, “Antimycotic agents containing acylated triazolyl-gamma-fluoropinacolyl derivatives, and their preparation” (BAYER AG, priority 1979, dated 1981):

Test system: Candida
Assay: Antimicrobial in-vivo activity (oral) in mouse candidosis
Settings: mice infected i.v. with Candida cells; 100 mg/kg oral one hour before and seven hours after infection; survivors on day 6 p.i.
Protocol: Versuchsbeschreibung: • Mäuse vom Typ SPF-CF1 wurden intravenös mit 1-2 x 10 logaritmisch wachsenden Candida-Zellen, die in physiologischer Kochsalzlösung suspendiert waren, infiziert. Eine Stunde vor und sieben Stunden nach der Infektion wurden die Tiere mit jeweils 100 mg/kg Körpergewicht der Präparate oral behandelt.
+++++ = sehr gute Wirkung = ≥ 90% Überlebende am 6.Tag p.i. ++++ = gute Wirkung = ≥30% Überlebende am 6.Tag p.i. +++ = Wirkung = ≥60% Überlebende am 6.Tag p.i. ++ = schwache Wirkung = ≥40% Überlebende am 6.Tag p.i. + = Spur Wirkung k.W.= keine Wirkung

With `CC(=O)OC(C(Oc1ccc(Cl)cc1C)n1cncn1)C(C)(C)C` (stereo not shown) the Wirkung was “k.W”.
